Source: patent publication EP3797781A1, “USE OF EC-7072 AND SYNERGIC COMPOSITIONS THEREOF IN TREATMENT OF CHRONIC LYMPHOCYTIC LEUKEMIA” (priority 2019, dated 2021)

System: isolated CLL cells
Assay: Western blotting of isolated CLL cells
Format: cell-based, human
Experimental: Isolated CLL cells were treated with 200 nM EC-7072 for 3, 8 and 12 hours and lysed with lysis buffer [50 mM Tris-HCl (pH 8), 150 mM NaCl, 1 mM EDTA, 1% NP-40, 20 mM NaF, EDTA-free protease inhibitor cocktail and phosSTOPTM (Roche)]. After heat denaturation, 25 µg protein were resolved on 10% and 15% SDS-PAGE gels and transferred to PVDF membranes (Sigma-Aldrich). Membranes were blocked with 5% BSA and incubated overnight at 4 °C with the corresponding primary antibodies (p-PLCγ2 (Y759), p-ERK1/2 (T202/Y204), p-STAT3 (Y705), p-LYN (Y507), STAT3 and GAPDH from Cell Signaling, and PLCγ2, ERK1/2, LYN, BCL-xL and Noxa from Santa Cruz Biotechnology). Blots were developed with secondary antibodies conjugated to IRDye680 or IRDye800 (Li-Cor Biosciences) and signal was detected on an Odyssey scanner.
Levels of phosphorylated and total proteins were quantified following Western blotting by densitometric analysis employing ImageJ software (https://imagej.nih.gov/ij/). To determine relative protein amounts, signal intensities were first normalized to GAPDH and the ratio between phosphorylated and total proteins was then calculated.
Western blot analysis of BCL-xL and Noxa in isolated CLL cells (n = 3) treated with 200 nM EC-7072 for the indicated times was performed (Figure 6E).
The inhibition of the tonic BCR pathway by EC-7072 was evaluated by: • (i) incubating PBMCs from patients with CLL, following treatment with 200 nM EC-7072, for 8 hours. Surface expression of CD79A (Figure 7A), CD79B (Figure 7B) and IgM (Figure 7C) in leukemia cells (n = 5 - 6) was assessed by flow cytometry and the MFI was normalized to the control (DMSO) condition; • (ii) incubating isolated leukemia cells from patients with CLL (n = 10), following treatment with EC-7072 (200 nM), for 8 hours. Phosphorylation levels of p-SYK (Figure 7D), p-BTK (Figure 7E) and p-PLCy2 (Figure 7F) proteins and p-ERK1/2 (Figure 7G), p-AKT (Figure 7H), p-p65 NPκB (Figure 7I) and p-STAT3 (Figure 7J) were evaluated by phosphoflow and the MFI was normalized to the control (DMSO) from each individual patient; • (iii) incubating PBMCs from patients with CLL (n = 8), following treatment with EC-7072 (200 nM), for 8 hours. Viability was determined by DiOC6(3)/PI staining and normalized to the control (DMSO) condition for each individual patient to obtain the mean percentage of viable [DiOC6(3)^+] cells (Figure 7K); • (iv) incubating isolated CLL cells (n = 4) stimulated with CD40L (100 ng/mL) or IL-6 (40 ng/mL) for 15 minutes and detecting respective phosphorylation levels of p65 NF-κB (Figure 7L) and STAT3 (Figure 7M) by phosphoflow to obtain the mean MFI normalized to the control (DMSO) condition for each individual patient; • (v) incubating isolated leukemia cells from 3 patients with CLL, following treatment with 200 nM EC-7072, for 3, 8 and 12 hours. Protein lysates were immunoblotted to detect the phosphorylated (p-LYN, p-PLCγ2, p-STAT3 and p-ERK1/2) and total protein (LYN, PLCγ2, STAT3 and ERK1/2) levels (Figure 7N); • (vi) incubating isolated leukemia cells from 3 patients with CLL, following treatment with 200 nM EC-7072, for 3, 8 and 12 hours and immunoblotting of protein lysates to detect p-LYN, LYN, p-PLCγ2, PLCγ2, p-STAT3, STAT3, p-ERK1/2 and ERK1/2. […]

[1] = 200 nM, 3, 8 and 12 hours, 3 patients

CO[C@@H]([C@@H]1Cc2cc3cc(O[C@H]4C[C@@H](O[C@H]5C[C@@H](O)[C@H](O)[C@@H](C)O5)[C@H](O)[C@@H](C)O4)c(C)c(O)c3c(O)c2C(=O)[C@H]1O[C@H]1C[C@@H](O[C@H]2C[C@@H](O[C@H]3C[C@](C)(O)[C@H](O)[C@@H](C)O3)[C@@H](O)[C@@H](C)O2)[C@H](O)[C@@H](C)O1)[C@@H](O)C(C)=O [EC-7072, mithramycin SK]
levels of p-STAT3 (Western blotting) [1]: diminished | p-LYN, p-PLCγ2 and p-ERK1/2 (Western blotting) [1]: time-dependent reduction | total amount of LYN, PLCγ2 and STAT3 [1]: downregulate | levels of the antiapoptotic protein BCL-xL (200 nM, time-dependent, n = 3): decreased | levels of the proapoptotic protein Noxa (200 nM, time-dependent, n = 3): increase
